Measured values from patent US20100113436A1, “DISPIRO TETRAOXANE COMPOUNDS AND THEIR USE IN THE TREATMENT OF MALARIA AND/OR CANCER” (priority 2006, published 2010).
Converted amounts (≈) assume the structure as drawn. Read-outs that look alike come from different tables or passages of the source.

Legend:
[1] = test system: Plasmodium falciparum PH3; assay: In vitro analysis versus strains of Plasmodium falciparum: PH3; type: cell-based; details: PH3 strain, read-out: IC50
[2] = test system: Plasmodium falciparum HB3; assay: In vitro analysis versus strains of Plasmodium falciparum: HB3; type: cell-based; details: HB3 strain, read-out: IC50
[3] = test system: H9c2(2-1) Myocardium, heart; assay: Cellular cytotoxicity screen, Resazurin reduction; type: cell-based, rat; details: H9c(2-1)
Text: (§1) Values represent Tox 50 in μM. Cytotoxicity measured by Resazurin reduction.
(§2) Single full dose response curves generated using 10 independent drug concentrations. The 100 therapeutic index (TI) is the ration of the TOX 50 to the IC50 for the specific compound against the 3D7 P. falciparum isolate. The primary hepatocytes have demonstrable drug metabolising activity. The tetraoxane derivatives are remarkably non-toxic in these screens with in vitro TIs of between 5000 to 17000!.

[4] = test system: L6 Sketal muscle myoblast; assay: Cellular cytotoxicity screen, Resazurin reduction; type: cell-based, rat
Text: as §1, §2

[5] = test system: Plasmodium falciparum GC03; assay: In vitro analysis versus strains of Plasmodium falciparum: GC03; type: cell-based; details: GC03 strain, read-out: IC50
[6] = test system: Vero Kidney; assay: Cellular cytotoxicity screen, Resazurin reduction; type: cell-based, African green monkey, Cercopithecus aethiops
Text: as §1, §2

[7] = test system: HepG2 Human hepatocyte carcinoma; assay: Cellular cytotoxicity screen, Resazurin reduction; type: cell-based; details: Hep2G
Text: as §1, §2

[8] = test system: P. berghei ANKA; assay: In vivo dose response screening against P. berghei ANKA; set-up: species or system mice; details: Plasmodium berghei; P. berghei ANKA infected mice; Table 9
Description: Compound 29c, 29h and 291 were then subjected to dose response experiment against the P. berghei ANKA and the results are summarized in Table 7 below.

[9] = test system: Plasmodium falciparum K1; assay: In vitro analysis versus strains of Plasmodium falciparum: K1; type: cell-based; details: K1 strain
[10] = test system: 3D7 strain of Plasmodium falciparum; assay: In vitro antimalarial activity, 48-h [3H]-hypoxanthine incorporation assay; type: cell-based
Description: The 3D7 strain of Plasmodium falciparum was used in this study. This strain is known to be […] Parasites were maintained in continuous culture using the method of Jensen and Trager^4. […] Stock drug solutions were prepared in 100% dimethylsulphoxide (DMSO) and diluted to the appropriate concentration using complete medium. Assays were performed in sterile 96-well microlitre plates, each plate contained 200 μl of parasite culture (2% parasitemia, 0.5% haematocrit) with or without 10 μl drug dilutions. Each drug was tested in triplicate and parasite growth compared to control wells (which constituted 100% parasite growth). […] IC50 values were calculated by interpolation of the probit transformation of the log dose-response curve.

[11] = test system: Salmonella typhimurium NM2009; assay: Salmonella typhimurium SOS/umu genotoxicity assay
Text: (§3) This assay is based on the ability of DNA damaging agents to induce the expression of the umu operon. The Salmonella strains have a plasmid pSK1002 which carries an umuC-lacZ fused gene that produces a hybrid protein with β-galactosidase activity and whose expression is controlled by the umu regulatory region.

[12] = test system: Salmonella typhimurium TA1535/pSK1002; assay: Salmonella typhimurium SOS/umu genotoxicity assay
Text: as §3

[13] = test system: P. berghei ANKA; assay: In vivo dose response screening against P. berghei ANKA; details: P. berghei ANKA infected mice; Table 9; sigmoidal curve calculation
[14] = test system: Plasmodium falciparum DD2; assay: In vitro analysis versus strains of Plasmodium falciparum: DD2; type: cell-based; details: DD2 strain, read-out: IC50
[15] = test system: MRC-5 Embryonal lung, diploid; assay: Cellular cytotoxicity screen, Resazurin reduction; type: cell-based, Human
Text: as §1, §2

[16] = test system: Plasmodium falciparum TM4; assay: In vitro analysis versus strains of Plasmodium falciparum: TM4; type: cell-based; details: TM4 strain, read-out: IC50
[17] = test system: Plasmodium falciparum V1S; assay: microbe, parasite or virus in culture; type: cell-based
[18] = physchem
[19] = Stability to other iron salts (FeSO4•7H2O, FeCl2•4H2O); type: physicochemical; details: further iron salts
[20] = Timed iron degradation stability, FeBr2 in THF; type: physicochemical; details: ferrous bromide/THF
Text: The resulting residue was purified by flash column chromatography and the % recovery of starting endoperoxide calculated (Table 15).

[21] = ratio TOX 50 to IC50 against 3D7 P. falciparum

CCS(=O)(=O)N1CCC2(CC1)OOC1(OO2)C2CC3CC(C2)CC1C3 [Tetraoxane 39b]
IC50 [1]: 1.9 nM
IC50 [2]: 3.8 nM
Tox 50 [3]: >50 µM
Theraputic Index (TI) [3, 21]: >9090
Tox 50 [4]: 31 µM
Theraputic Index (TI) [4, 21]: 5636
IC50 [5]: 3 nM
Tox 50 [6]: >50 µM
Theraputic Index (TI) [6, 21]: >9090
Tox 50 [7]: >50 µM
Theraputic Index (TI) [7, 21]: >9090
ED50 [8]: 6.61 mg/kg
IC50 [9]: 3 nM
IC50 ([10]; 3D7, read-out: Mean IC50): 5.55 nM
MCE NM2009 (Maximum Co w/o effects on bacteria growth or beta-galactosidase production) ([11]; Salmonella typhimurium): 50 µM
Max. Fold Increase ([11]; −S9): 1.07 ± 0.03 fold
Potential genotox ([11]; −S9): NEG
MCE TA1535 (Maximum Co w/o effects on bacteria growth or β-galactosidase production) ([12]; Salmonella typhimurium): 50 µM
genotoxicity result in SOS/umu assay ([12]; both strains TA1535/pSK1002 and NM2009, highest concentration tested 50 μM, absence and presence of S-9 mix): Negative
Max. Fold Increase ([12]; −S9): 1.03 ± 0.07 fold
Potential genotox ([12]; −S9): NEG
ED90 [13]: 35.48 mg/kg
IC50 [14]: 3 nM
Tox 50 [15]: >50 µM
Theraputic Index (TI) [15, 21]: >9090
IC50 [16]: 2.4 nM
IC50 [17]: 2.7 nM
solubility [18]: 50 µM (≈ 18.7 µg/mL)

O=S(=O)(c1ccccc1)N1CCC2(CC1)OOC1(OO2)C2CC3CC(C2)CC1C3 [Tetraoxane 39f]
IC50 ([10]; 3D7, sulfonamide dispiro 1,2,4,5-tetraoxanes, Table 8, read-out: Mean IC50): 8.1 nM
degradation by iron salts known to degrade artemisinin and arteflene [19]: ineffective at degrading
degradation ([20]; after 4 h): 10%
turnover ([20]; after 48 h): 31%
